Data reported in US10167262B2, “Herbicidal substituted 3-arylpyrazoles” (FMC CORPORATION, priority 2014, dated 2019).

Legend:
Type in all cases: in vivo
[1] = tested on: barnyardgrass (Echinochloa crus-galli); assay: Test B flooded paddy test, plant response rating 0-100; details: Flood, 250 g ai/ha; scale 0 to 100 (0 no effect, 100 complete control); 13 to 15 days
In short: (§1)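 Pots were flooded to 3 cm above the soil surface at treatment, compound applied directly to the paddy water, and that depth held throughout. Plants were kept in a greenhouse for 13 to 15 days, then visually rated against untreated controls.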

[2] = tested on: sedge, umbrella (small-flower umbrella sedge, Cyperus difformis); assay: as above; details: Flood, 250 g ai/ha; scale 0 to 100 (0 no effect, 100 complete control); 13 to 15 days
In short: as §1

[3] = tested on: ducksalad (Heteranthera limosa); assay: as above; details: Flood, 250 g ai/ha; scale 0 to 100 (0 no effect, 100 complete control); 13 to 15 days
In short: as §1

[4] = tested on: rice (Oryza sativa); assay: as above; details: Flood, 250 g ai/ha; scale 0 to 100 (0 no effect, 100 complete control); 13 to 15 days
In short: as §1

[5] = tested on: arrowleaf sida (Sida rhombifolia); assay: Test E pre-/postemergence greenhouse test, plant response rating 0-100; details: for Arrowleaf Sida plant response rating: Preemergence
In short: (§2)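 Sow seeds in silt loam and treat preemergence; at the same time, spray postemergence on 1- to 4-leaf plants in peat/vermiculite mix. Use a non-phytotoxic solvent plus surfactant as carrier. Hold 14–21 days in greenhouse, then score visually 0–100 against controls.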

[6] = tested on: palmer pigweed (Amaranthus palmeri); assay: as above; details: scale 0 to 100; for Pigweed, Palmer plant response rating: Preemergence
In short: as §2

[7] = tested on: barnyardgrass (Echinochloa crus-galli); assay: Test C pre-/postemergence greenhouse test, plant response rating 0-100
In short: (§3)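 Visual 0–100 control scores, taken 13 to 15 days post-application in a greenhouse, reflect treatment preemergence (seed in loam soil with sand) or postemergence (2–18 cm plants in peat moss, vermiculite medium). A dash marks no result.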

[8] = tested on: oilseed rape (Brassica napus); assay: as above
In short: as §3

[9] = tested on: waterhemp (common waterhemp, Amaranthus rudis); assay: as above
In short: as §3

[10] = tested on: waterhemp_RES2, (ALS & HPPD resistant common waterhemp, Amaranthus rudis); assay: Test E postemergence greenhouse test, plant response rating 0-100; details: scale 0 to 100
Procedure: At the same time, plants from these crop and weed species and also waterhemp_RES1, (ALS & Triazine resistant common waterhemp, Amaranthus rudis), and waterhemp_RES2, (ALS & HPPD resistant common waterhemp, Amaranthus rudis) were planted in pots containing Redi-Earth® planting medium (Scotts Company, 14111 Scottslawn Road, Marysville, Ohio 43041) comprising spaghnum peat moss, vermiculite, wetting agent and starter nutrients were treated with postemergence applications of test chemicals formulated in the same manner. Plants ranged in height from 2 to 18 cm for postemergence treatments (1- to 4-leaf stage).
Treated plants and controls were maintained in a greenhouse for 14 to 21 days, after which time all species were compared to controls and visually evaluated. Plant response ratings, summarized in Table E, are based on a scale of 0 to 100 where 0 is no effect and 100 is complete control. A dash (-) response means no test result.

[11] = Postemergence, 125 g ai/ha, scale 0 to 100
[12] = Postemergence, 250 g ai/ha, scale 0 to 100
[13] = Postemergence, 500 g ai/ha, scale 0 to 100

O=C(c1ccccc1)c1cn(S(=O)(=O)C(F)(F)F)nc1-c1cc(Cl)cc(Cl)c1 [Compound 2]
0: Plant response rating, Barnyardgrass [1] | Plant response rating, Sedge, Umbrella [2] | Plant response rating, Ducksalad [3] | Plant response rating, Rice [4] | Pigweed, Palmer plant response rating ([6]; 31 g ai/ha) | Pigweed, Palmer plant response rating ([6]; 62 g ai/ha) | Pigweed, Palmer plant response rating ([6]; 125 g ai/ha) | Pigweed, Palmer plant response rating ([6]; 250 g ai/ha) | Plant response rating (0 to 100), Barnyardgrass ([7]; Postemergence, 62 g ai/ha) | Plant response rating, Barnyardgrass [7, 11] | Plant response rating, Barnyardgrass [7, 12] | Plant response rating, Barnyardgrass [7, 13] | Plant response rating, Waterhemp_RES2 ([10]; 31 g ai/ha)
65: Plant response rating, Pigweed, Palmer ([6]; Postemergence, 31 g ai/ha) | Plant response rating, Waterhemp_RES2 ([10]; 62 g ai/ha)
100: Plant response rating, Pigweed, Palmer ([6]; Postemergence, 500 g ai/ha) | Pigweed, Palmer plant response rating ([6]; 500 g ai/ha) | Plant response rating, Waterhemp [9, 12] | Plant response rating, Waterhemp [9, 13] | Plant response rating, Waterhemp ([9]; Preemergence, 0 to 100 scale (0 no effect, 100 complete control), rate 500 g ai/ha)
95: Plant response rating, Arrowleaf Sida ([5]; Postemergence, 31 g ai/ha, scale 0 to 100) | Plant response rating, Arrowleaf Sida ([5]; Postemergence, 62 g ai/ha, scale 0 to 100) | Plant response rating, Arrowleaf Sida [5, 11] | Plant response rating, Arrowleaf Sida [5, 12] | Arrowleaf Sida plant response rating ([5]; 500 g ai/ha, scale 0 to 100) | Plant response rating, Pigweed, Palmer ([6]; Postemergence, 250 g ai/ha) | Plant response rating, Waterhemp_RES2 ([10]; 250 g ai/ha)
90: Plant response rating, Pigweed, Palmer ([6]; Postemergence, 125 g ai/ha) | Plant response rating, Oilseed Rape [8, 12] | Plant response rating, Oilseed Rape [8, 13]
85: Plant response rating, Pigweed, Palmer ([6]; Postemergence, 62 g ai/ha) | Plant response rating (0 to 100), Waterhemp ([9]; Postemergence, 62 g ai/ha) | Plant response rating (0 to 100), Waterhemp ([9]; Postemergence, 125 g ai/ha) | Plant response rating, Waterhemp_RES2 ([10]; 125 g ai/ha)
98: Plant response rating, Arrowleaf Sida ([5]; Postemergence, 500 g ai/ha, scale 0 to 100 (0 no effect, 100 complete control)) | Arrowleaf Sida plant response rating ([5]; 250 g ai/ha, scale 0 to 100) | Plant response rating, Waterhemp_RES2 ([10]; 500 g ai/ha)
70: Plant response rating (0 to 100), Oilseed Rape ([8]; Postemergence, 62 g ai/ha) | Plant response rating (0 to 100), Oilseed Rape ([8]; Postemergence, 125 g ai/ha)
50: Arrowleaf Sida plant response rating ([5]; 125 g ai/ha, scale 0 to 100)
35: Arrowleaf Sida plant response rating ([5]; 31 g ai/ha, scale 0 to 100) | Arrowleaf Sida plant response rating ([5]; 62 g ai/ha, scale 0 to 100)

COC(OC)(c1ccccc1)c1c[nH]nc1-c1cc(Cl)cc(Cl)c1 [Compound 13, 3-(3,5-dichlorophenyl)-4-(dimethoxyphenylmethyl)-1H-pyrazole]
95: Plant response rating, Waterhemp_RES2 ([10]; 500 g ai/ha)
50: Plant response rating, Oilseed Rape [8, 12] | Plant response rating, Oilseed Rape ([8]; Preemergence, 62 g ai/ha)
30: Plant response rating, Oilseed Rape ([8]; Preemergence, 250 g ai/ha)
85%: pest or weed control at 125 g/ha ([6]; Amaranthus palmeri, post-emergence, Postemergence, 125 g ai/ha)
100: Plant response rating (0 to 100), Waterhemp ([9]; Postemergence, 62 g ai/ha) | Plant response rating (0 to 100), Waterhemp ([9]; Postemergence, 125 g ai/ha) | Plant response rating, Waterhemp [9, 12] | Plant response rating, Waterhemp [9, 13] | Plant response rating, Waterhemp ([9]; Preemergence, 62 g ai/ha) | Plant response rating, Waterhemp ([9]; Preemergence, 125 g ai/ha) | Plant response rating, Waterhemp ([9]; Preemergence, 250 g ai/ha) | Plant response rating, Waterhemp ([9]; Preemergence, 500 g ai/ha)
80%: pest or weed control at 125 g/ha ([5]; Sida rhombifolia, post-emergence, Postemergence, 125 g ai/ha, scale 0 to 100)
20: Plant response rating, Oilseed Rape ([8]; Preemergence, 125 g ai/ha)
98: Plant response rating, Oilseed Rape ([8]; Preemergence, 500 g ai/ha)
70: Plant response rating, Oilseed Rape [8, 13]
75: Plant response rating, Waterhemp_RES2 ([10]; 125 g ai/ha)
40: Plant response rating (0 to 100), Oilseed Rape ([8]; Postemergence, 62 g ai/ha)
90%: pest or weed control at 500 g/ha ([5]; Sida rhombifolia, post-emergence, Postemergence, 500 g ai/ha, scale 0 to 100 (0 no effect, 100 complete control))
0: Plant response rating, Barnyardgrass [1] | Plant response rating, Sedge, Umbrella [2] | Plant response rating, Ducksalad [3] | Plant response rating, Rice [4] | Plant response rating (0 to 100), Barnyardgrass ([7]; Postemergence, 62 g ai/ha) | Plant response rating, Barnyardgrass [7, 11] | Plant response rating, Barnyardgrass [7, 12] | Plant response rating, Barnyardgrass [7, 13] | Plant response rating, Barnyardgrass ([7]; Preemergence, 62 g ai/ha) | Plant response rating, Barnyardgrass ([7]; Preemergence, 125 g ai/ha) | Plant response rating, Barnyardgrass ([7]; Preemergence, 250 g ai/ha) | Plant response rating, Barnyardgrass ([7]; Preemergence, 500 g ai/ha)
95%: pest or weed control at 500 g/ha ([6]; Amaranthus palmeri, post-emergence, Postemergence, 500 g ai/ha)
55: Plant response rating (0 to 100), Oilseed Rape ([8]; Postemergence, 125 g ai/ha)
